Reference: patent publication US6291432A (Japan Energy Corporation, priority 1996, dated 2001)

biological target: T1, recombinant HIV-1 protease (Human immunodeficiency virus type 1 group M subtype B, UniProt P04585); assay: HIV protease inhibition activity (enzyme activity inhibition rate); type: biochemical; settings: 50 nM final concentration of test compound; 60 min at 37° C.
T1 construct: measured using a recombinant HIV-1 protease
Experimental: The protease activity was measured using a recombinant HIV-1 protease (see Biochemistry, 250 (9)-264 (1990)) and a synthesized peptide substrate. The inhibition rate was calculated by determining a peptide fragment generated by cleavage between Tyr-Pro of the synthesized substrate after the reaction of 60 min at 37° C. using a reversed phase HPLC in the presence of the test compounds in various concentrations (see, for example, Japanese Patent Application Laid-open No. 170722/1993).
Examples of the evaluation results of the HIV protease inhibition activity of the tripeptide compound of the present invention by the above-described method is shown in Table 1. […] The concentration of the test compounds in Table 1 represents the final concentration in the reaction mixture.

Compared with `Cc1ccccc1CNC(=O)[C@H]1N(C(=O)[C@@H](O)[C@H](Cc2ccccc2)NC(=O)[C@@H](NC(=O)c2cc(=O)c3ccccc3o2)C(C)C)CSC1(C)C` [Example 12, (R)-N-(2-methylbenzyl)-3-{(2S,3S)-3-[N-(2-chromonecarbonyl)-L-valyl]amino-2-hydroxy-4-phenylbutanoyl}-5,5-dimethyl-1,3-thiazolidine-4-carboxamide], “(R)-N-(2-methylbenzyl)-3-{(2S,3S)-3-[N-(3-benzylphenoxyacetyl)-L-valyl]amin o-2-hydroxy-4-phenylbutanoyl}-5,5-dimethyl-1,3-thiazolidine-4-carboxamide [Example 17]” is lower in “Enzyme activity inhibition rate (%) (addition concentration of 50 nM)” value: 97.4% for the first, 97.1% for the second.

For `CC[C@H](NC(=O)COc1ccc2ncccc2c1)C(=O)N[C@@H](Cc1ccccc1)[C@H](O)C(=O)N1CSC(C)(C)[C@H]1C(=O)NCc1ccccc1C` [Example 24, (R)-N-(2-methylbenzyl)-3-{(2S,3S)-2-hydroxy-3-[(S)-2-(6-quinolinyloxyacetyl)aminobutanoyl]amino-4-phenylbutanoyl}-5,5-dimethyl-1-thiazolidine-4-carbox amide], the “Enzyme activity inhibition rate (%) (addition concentration of 50 nM)” value was 98.1%.

same assay, conditions: 50 nM final concentration of test compound; 60 min at 37° C.; read-out: Enzyme activity inhibition rate (%) (addition concentration of 50 nM)

First: Cc1ccccc1CNC(=O)[C@H]1N(C(=O)[C@@H](O)[C@H](Cc2ccccc2)NC(=O)[C@@H](NC(=O)OCc2ccccc2)C(C)C)CSC1(C)C [Example 4, (R)-N-(2-methylbenzyl)-3-{(2S,3S)-3-[N-(benzyloxycarbonyl)-L-valyl]amino-2-hydroxy-4-phenylbutanoyl}-5,5-dimethyl-1,3-thiazolidine-4-carboxamide]
Second: CCOC(=O)N[C@H](C(=O)N[C@@H](Cc1ccccc1)[C@H](O)C(=O)N1CSC(C)(C)[C@H]1C(=O)NCc1ccccc1C)C(C)C [Example 29, (R)-N-(2-methylbenzyl)-3-{(2S,3S)-2-hydroxy-3-[(S)-2-(ethoxycarbonyl)amino-3-methylbutanoyl]amino-4-phenylbutanoyl}-5,5-dimethyl-1,3-thiazolidine-4-ca rboxamide]
The inhibition at 0.05 µM of the first is higher: 95.3% for the first, 93% for the second.

Compared with `Cc1ccccc1CNC(=O)[C@H]1N(C(=O)[C@@H](O)[C@H](Cc2ccccc2)NC(=O)[C@@H](NC(=O)c2nc3ccccc3s2)C(C)C)CSC1(C)C` [Example 14, (R)-N-(2-methylbenzyl)-3-{(2S,3S)-3-[N-(2-benzothiazolecarbonyl)-L-valyl]amino-2-hydroxy-4-phenylbutanoyl}-5,5-dimethyl-1,3-thiazolidine-4-carboxamide], `Cc1ccccc1CNC(=O)[C@H]1N(C(=O)[C@@H](O)[C@H](Cc2ccccc2)NC(=O)[C@@H](NC(=O)c2nc3ccccc3[nH]2)C(C)C)CSC1(C)C` [Example 15, (R)-N-(2-methylbenzyl)-3-{(2S,3S)-3-[N-(2-benzimidazolecarbonyl)-L-valyl]amino-2-hydroxy-4-phenylbutanoyl}-5,5-dimethyl-1,3-thiazolidine-4-carboxamide] is lower in inhibition at 0.05 µM: 95.8% for the first, 92.8% for the second.

Going from `CC[C@H](NC(C)=O)C(=O)N[C@@H](Cc1ccccc1)[C@H](O)C(=O)N1CSC(C)(C)[C@H]1C(=O)NCc1ccccc1C` [Example 34, (R)-N-(2-methylbenzyl)-3-{(2S,3S)-2-hydroxy-3-[(S)-2-acetylaminobutanoyl]amino-4-phenylbutanoyl}-5,5-dimethyl-1,3-thiazolidine-4-carboxamide] to `CC[C@H](NS(C)(=O)=O)C(=O)N[C@@H](Cc1ccccc1)[C@H](O)C(=O)N1CSC(C)(C)[C@H]1C(=O)NCc1ccccc1C` [Example 38, (R)-N-(2-methylbenzyl)-3-{(2S,3S)-2-hydroxy-3-[(S)-2-methanesulfonylaminobutanoyl]amino-4-phenylbutanoyl}-5,5-dimethyl-1,3-thiazolidine-4-carboxamide], the inhibition at 0.05 µM falls from 88.9% to 76%.

`Cc1ccccc1CNC(=O)[C@H]1N(C(=O)[C@@H](O)[C@H](Cc2ccccc2)NC(=O)[C@@H](NC(=O)COc2cccc3cnccc23)C(C)C)CSC1(C)C` [Example 8, (R)-N-(2-methylbenzyl)-3-{(2S,3S)-3-[N-(5-isoquinolinyloxyacetyl)-L-valyl]amino-2-hydroxy-4-phenylbutanoyl}-5,5-dimethyl-1,3-thiazolidine-4-carboxamide] and `Cc1ccccc1CNC(=O)[C@H]1N(C(=O)[C@@H](O)[C@H](Cc2ccccc2)NC(=O)[C@@H](NC(=O)c2cnc3ccccc3c2)C(C)C)CSC1(C)C` [Example 21, (R)-N-(2-methylbenzyl)-3-{(2S,3S)-2-hydroxy-3-[(S)-2-(3-quinolinecarbonyl)amino-3-methylbutanoyl]amino-4-phenylbutanoyl}-5,5-dimethyl-1,3-thiazolidine-4-carboxamide] are the same in inhibition at 0.05 µM: 97.7% for the first, 97.7% for the second.

Going from `COc1cccc2cc(C(=O)N[C@@H](C)C(=O)N[C@@H](Cc3ccccc3)[C@H](O)C(=O)N3CSC(C)(C)[C@H]3C(=O)NCc3ccccc3C)oc12` [Example 20, (R)-N-(2-methylbenzyl)-3-{(2S,3S)-2-hydroxy-3-[(S)-2-(7-methoxy-2-benzofurancarbonyl)aminopropanoyl]amino-4-phenylbutanoyl}-5,5-dimethyl-1,3-thiazolidine-4-carboxamide] to `Cc1ccccc1CNC(=O)[C@H]1N(C(=O)[C@@H](O)[C@H](Cc2ccccc2)NC(=O)[C@@H](NC(=O)c2ccc3ccccc3n2)C(C)C)CSC1(C)C` [Example 13, (R)-N-(2-methylbenzyl)-3-{(2S,3S)-3-[N-(2-quinolinecarbonyl)-L-valyl]amino-2-hydroxy-4-phenylbutanoyl}-5,5-dimethyl-1,3-thiazolidine-4-carboxamide], the inhibition at 0.05 µM falls from 97.6% to 96.6%.

First: CC1(C)SCN(C(=O)[C@@H](O)[C@H](Cc2ccccc2)NC(=O)[C@H](CC(N)=O)NC(=O)OCc2ccccc2)[C@@H]1C(=O)NCc1ccccc1Cl [Example 5, (R)-N-(2-chlorobenzyl)-3-{(2S,3S)-3-[N-(benzyloxycarbonyl)-L-asparaginyl]amino-2-hydroxy-4-phenylbutanoyl}-5,5-dimethyl-1,3-thiazolidine-4-carboxamide]
Second: Cc1ccccc1CNC(=O)[C@H]1N(C(=O)[C@@H](O)[C@H](Cc2ccccc2)NC(=O)[C@@H](NC(=O)c2cnc3ccccc3n2)C(C)C)CSC1(C)C [Example 19, (R)-N-(2-methylbenzyl)-3-{(2S,3S)-3-[N-(2-quinoxalinecarbonyl)-L-valyl]amino-2-hydroxy-4-phenylbutanoyl}-5,5-dimethyl-1,3-thiazolidine-4-carboxamide]
The inhibition at 0.05 µM of the first is higher: 98.4% for the first, 97.3% for the second.

Molecule `Cc1ccccc1CNC(=O)[C@H]1N(C(=O)[C@@H](O)[C@H](Cc2ccccc2)NC(=O)[C@@H](NS(C)(=O)=O)C(C)C)CSC1(C)C` [Example 37, (R)-N-(2-methylbenzyl)-3-{(2S,3S)-2-hydroxy-3-[(S)-2-methanesulfonylamino-3-methylbutanoyl]amino-4-phenylbutanoyl}-5,5-dimethyl-1,3-thiazolidine-4-car boxamide] has an inhibition at 0.05 µM of 70.1%.

same assay, conditions: read-out: Enzyme activity inhibition rate (%) (addition concentration of 50 nM)

Molecule `CCOCC(=O)N[C@H](C(=O)N[C@@H](Cc1ccccc1)[C@H](O)C(=O)N1CSC(C)(C)[C@H]1C(=O)NCc1ccccc1C)C(C)C` [Example 32, (R)-N-(2-methylbenzyl)-3-{(2S,3S)-2-hydroxy-3-[(S)-2-(ethoxyacetyl)amino-3-methylbutanoyl]amino-4-phenylbutanoyl}-5,5-dimethyl-1,3-thiazolidine-4-carb oxamide] has an inhibition at 0.05 µM of 96.4%.
